Test results taken from patent US9289517B2 (COMMISSARIAT A L'ENERGIE ATOMIQUE ET AUX ENERGIES …, priority 2008, dated 2016).

Experiments:
[1] = Fluorescence quantum yield F; assay type: physicochemical; conditions: directly, 10 and 40 days after dialysis
[2] = Fluorescence level measured under optical device (capillaries); conditions: approximately 25 minutes after first measurement; 2.5 nmoles ICG in water, 0.5 nmoles as nanoemulsions
[3] = Behaviour in isotonic medium (154 mM sodium chloride); assay type: physicochemical
[4] = prior-art statement; tissue autofluorescence typically 0.3-0.4 ns; cited from earlier work

indocyanine green [ICG]
stability of quantum yield over time [1]: the quantum yield remains stable over time, unlike that of free ICG in water | fluorescence level over time [2]: reduction over time of the fluorescence level | behaviour in isotonic medium [3]: flocculates | fluorescence lifetime of ICG [4]: 0.5 ns
